Assay results reported in US20070082818A1, “Agrochemical compositions” (priority 2003, published 2007).
Structures can show the parent of a compound that is named as a salt.

Tests used:
[1] = system: eight representative weed species; test: Bioperformance enhancement of paraquat by amine/amide adjuvants, moving track sprayer; format: in vivo; settings: paraquat dichloride spray at 10, 20 and 40 g/ha paraquat ion, 200 l/ha; adjuvant 0.5% by weight of spray volume (aminoethylpiperazine 0.625%); 7 days after treatment; mean over all species and combined rates; 0% no herbicidal effect, 100% complete kill
Description: The bioperformance enhancement of paraquat in the presence of amines or amides of the present invention was evaluated. An aqueous formulation of paraquat dichloride containing 0.5% by weight of the quinuclidine (based on the weight of the amine salt), N-(aminopropyl) morphiline (based on the weight of the parent amine) or 1-(2-hydroxethyl-2-imidazolidinone) (based on the weight of the amide), all based on total spray volume was applied using a moving track sprayer to eight representative weed species at 10, 20 and 40 g/ha (based on paraquat ion). The spray volume was equivalent to 200 l/ha. For aminoethylpiperazine the formulation contained 0.625% by weight of the amine (based on the parent amine).
The results are compared with an equivalent formulation containing only paraquat chloride.

[2] = format: physicochemical
Description: It is to be understood that the term physical incompatibility in relation to adjuvants used in bipyridyl compositions indicates either gross separation of one or more components of the composition which may or may not be accompanied by a significant change in formulation rheology or bulk homogeneity. It is not necessarily essential that the composition is fully homogeneous in a strict physical sense provided that the composition is substantially homogeneous in the bulk. Thus a slight separation of a second phase may be acceptable provided that the separated phase remains fully dispersed in the bulk. […] This is obviously undesirable for a number of reasons. The term physical compatibility indicates the reverse of physical incompatibility as defined above.

[3] = Physical compatibility of formulations by microscopic examination; format: physicochemical; settings: corresponding formulations with about 120 g/l magnesium sulphate heptahydrate
[4] = system: drilled broad leaved & grass weeds; test: Field trials of 200 g/l paraquat compositions applied as foliar spray; format: in vivo; settings: 39% and 51% of the conventional adjuvant system substituted
Description: Field Trials were conducted at 8 locations where the target plants were a range of drilled broad leaved & grass weeds. The 200 g/l paraquat compositions were applied as a foliar spray at application rates of 75, 150 & 300 g/ha paraquat ion, and at an application volume of 200 l/ha at a weed growth stage when the grasses were tillering & the broadleaved weeds were branching.

O=C1NCCN1CCO [1-(2-hydroxethyl-2-imidazolidinone)]
Mean Activity (%) [1]: 66%

NCCN1CCNCC1 [Aminoethylpiperazine]
Mean Activity (%) [1]: 72%

NCCCN1CCOCC1 [N-(Aminopropyl) morphiline]
Mean Activity (%) [1]: 65%

C1CN2CCC1CC2 [Quinuclidine as hydrochloride salt, Quinuclidine]
Mean Activity (%) [1]: 68%

CCCCCCCCOC(=O)CC(C(=O)OCCCCCCCC)S(=O)(=O)O.[Na] (centres unmarked) [sodium dioctyl sulfosuccinate, reference compound]
Adjuvant level at which physical separation / two phases were observed ([2]; about 120 g/l paraquat ion, about 80 g/l diquat ion, alginate, about 120 g/l magnesium sulphate heptahydrate): below 10 g/l

aminoethylpiperazine [AEP]
Adjuvant loading compatible with compositions of WO 02/076212 ([2]; actual amine): ≥ 40 g/L
Physical compatibility when conventional surfactants were replaced by AEP [3]: significant improvement
Effect on biological performance of substituting conventional adjuvant system by AEP [4]: no deleterious effect
